The values below come from patent US20220267352A1, “RAPAMYCIN ANALOGS AND USES THEREOF” (Anakuria Therapeutics, Inc., priority 2021, published 2022).

As a reminder, the IC50 is the concentration needed to halve the response being measured. A higher IC50 goes with lower potency.

The structures appear in SMILES notation.

This experiment relates to p-p70 S6 Kinase (Thr389) in MCF-7 cells. In words: AlphaLISA Ultra pS6K1 assay. To be noted: Homo sapiens, 1.5 h; MCF7 cells, 90 min. It is filed as cell-based. The procedure:
Example 55: AlphaLISA Ultra pS6K1 Assay
Assay Protocol: • 1. Seed MCF-7 cells in Corning 3701 plate and incubate for 20˜24 hour. 12,000˜16,000 cells will be seeded in 36 μL medium per well. • 2. Change the culture medium with fresh medium and incubate for another 2 hours. • 3. Add 12 μL (4×) compounds into the cell plate by HAMILTON. Final DMSO concentration is 0.5%. Incubate for 90 minutes. • 4. Aspirate 38 μL by HAMILTON, 10 μL rest per well. • 5. Add 10 μL 2× lysis buffer using HAMILTON; total volume in wells is 20 μL. Allow cells to shake for 30 min. Cover plate by plastic foil and store plate at −80° C. up to analysis. • 6. Thaw cell lysate at RT and transfer 10 μL lysate to assay plate (Optiplate-384). • 7. Add 5 μL acceptor beads into assay plate and incubation for 2 hours • 8. Add 5 μL donor beads and incubation for 2 hours • 9. Count the plate by EnSpire Multimode Plate Reader
For orientation: Bead proximity is the source of the signal in Alpha formats.
The compound `COCCO[C@@H]1CC[C@@H](C[C@@H](C)[C@@H]2CC(=O)[C@H](C)/C=C(\C)[C@@H](O)[C@@H](OC)C(=O)[C@H](C)C[C@H](C)/C=C/C=C/C=C(\C)[C@H](OC[C@H]3COCCO3)C[C@@H]3CC[C@@H](C)[C@@](O)(O3)C(=O)C(=O)N3CCCC[C@H]3C(=O)O2)C[C@H]1OC` [I-63, (1R,9S,12S,15R,16E,18R,19R,21R,23S,24E,26E,28E,30R,32S,35R)-30-[[(2R)-1,4-dioxan-2-yl]methoxy]-1,18-dihydroxy-19-methoxy-12-[(1R)-2-[(1S,3R,4R)-3-methoxy-4-(2-methoxyethoxy)cyclohexyl]-1-methyl-ethyl]-15,17,21,23,29,35-hexamethyl-11,36-dioxa-4-azatricyclo[30.3.1.0^4,9]hexatriaconta-16,24,26,28-tetraene-2,3,10,14,20-pentone] registered an IC50 of 1 to 10 nM.
Compound `COCCO[C@@H]1CC[C@@H](C[C@@H](C)[C@@H]2CC(=O)[C@H](C)/C=C(\C)[C@@H](O)[C@@H](OC)C(=O)[C@H](C)C[C@H](C)/C=C/C=C/C=C(\C)[C@H](OC[C@@H]3COCCO3)C[C@@H]3CC[C@@H](C)[C@@](O)(O3)C(=O)C(=O)N3CCCC[C@H]3C(=O)O2)C[C@H]1OC` [I-65, (1R,9S,12S,15R,16E,18R,19R,21R,23S,24E,26E,28E,30R,32S,35R)-30-[[(2S)-1,4-dioxan-2-yl]methoxy]-1,18-dihydroxy-19-methoxy-12-[(1R)-2-[(1S,3R,4R)-3-methoxy-4-(2-methoxyethoxy)cyclohexyl]-1-methyl-ethyl]-15,17,21,23,29,35-hexamethyl-11,36-dioxa-4-azatricyclo[30.3.1.0^4,9]hexatriaconta-16,24,26,28-tetraene-2,3,10,14,20-pentone] yielded an IC50 of 1 to 10 nM.
For the compound `CO[C@@H]1C[C@H](C[C@@H](C)[C@@H]2CC(=O)[C@H](C)/C=C(\C)[C@@H](O)[C@@H](OC)C(=O)[C@H](C)C[C@H](C)/C=C/C=C/C=C(\C)C(OCc3cnccn3)C[C@@H]3CC[C@@H](C)[C@@](O)(O3)C(=O)C(=O)N3CCCC[C@H]3C(=O)O2)CC[C@H]1OCCO` (stereo partly drawn) [I-67, (1R,9S,12S,15R,16E,18R,19R,21R,23S,24E,26E,28E,32S,35R)-1,18-dihydroxy-12-[(1R)-2-[(1S,3R,4R)-4-(2-hydroxyethoxy)-3-methoxy-cyclohexyl]-1-methyl-ethyl]-19-methoxy-15,17,21,23,29,35-hexamethyl-30-(pyrazin-2-ylmethoxy)-11,36-dioxa-4-azatricyclo[30.3.1.0^4,9]hexatriaconta-16,24,26,28-tetraene-2,3,10,14,20-pentone], the IC50 was < 1 nM.
Next, `COCCO[C@@H]1CC[C@@H](C[C@@H](C)[C@@H]2CC(=O)[C@H](C)/C=C(\C)[C@@H](O)[C@@H](OC)C(=O)[C@H](C)C[C@H](C)/C=C/C=C/C=C(\C)C(OCc3cnccn3)C[C@@H]3CC[C@@H](C)[C@@](O)(O3)C(=O)C(=O)N3CCCC[C@H]3C(=O)O2)C[C@H]1OC` (stereo partly drawn) [I-68, (1R,9S,12S,15R,16E,18R,19R,21R,23S,24E,26E,28E,32S,35R)-1,18-dihydroxy-19-methoxy-12-[(1R)-2-[(1S,3R,4R)-3-methoxy-4-(2-methoxyethoxy)cyclohexyl]-1-methyl-ethyl]-15,17,21,23,29,35-hexamethyl-30-(pyrazin-2-ylmethoxy)-11,36-dioxa-4-azatricyclo[30.3.1.0^4,9]hexatriaconta-16,24,26,28-tetraene-2,3,10,14,20-pentone]: < 1 nM.
Next, `CO[C@@H]1C[C@H](C[C@@H](C)[C@@H]2CC(=O)[C@H](C)/C=C(\C)[C@@H](O)[C@@H](OC)C(=O)[C@H](C)C[C@H](C)/C=C/C=C/C=C(\C)[C@H](OCCOC3COC3)C[C@@H]3CC[C@@H](C)[C@@](O)(O3)C(=O)C(=O)N3CCCC[C@H]3C(=O)O2)CC[C@H]1O` [I-71, (1R,9S,12S,15R,16E,18R,19R,21R,23S,24E,26E,28E,30R,32S,35R)-1,18-dihydroxy-12-[(1R)-2-[(1S,3R,4R)-4-hydroxy-3-methoxy-cyclohexyl]-1-methyl-ethyl]-19-methoxy-15,17,21,23,29,35-hexamethyl-30-[2-(oxetan-3-yloxy)ethoxy]-11,36-dioxa-4-azatricyclo[30.3.1.0^4,9]hexatriaconta-16,24,26,28-tetraene-2,3,10,14,20-pentone]: 1 to 10 nM; `CO[C@@H]1C[C@H](C[C@@H](C)[C@@H]2CC(=O)[C@H](C)/C=C(\C)[C@@H](O)[C@@H](OC)C(=O)[C@H](C)C[C@H](C)/C=C/C=C/C=C(\C)[C@@H](OCCOC3COC3)C[C@@H]3CC[C@@H](C)[C@@](O)(O3)C(=O)C(=O)N3CCCC[C@H]3C(=O)O2)CC[C@H]1O` [I-72, (1R,9S,12S,15R,16E,18R,19R,21R,23S,24E,26E,28E,30S,32S,35R)-1,18-dihydroxy-12-[(1R)-2-[(1S,3R,4R)-4-hydroxy-3-methoxy-cyclohexyl]-1-methyl-ethyl]-19-methoxy-15,17,21,23,29,35-hexamethyl-30-[2-(oxetan-3-yloxy)ethoxy]-11,36-dioxa-4-azatricyclo[30.3.1.0^4,9]hexatriaconta-16,24,26,28-tetraene-2,3,10,14,20-pentone]: < 1 nM; `CO[C@@H]1/C(C)=C/[C@@H](C)C(=O)C[C@@H]([C@H](C)C[C@@H]2CC[C@@H](OP(C)(C)=O)[C@H](OC)C2)OC(=O)[C@@H]2CCCCN2C(=O)C(=O)[C@]2(O)O[C@@H](CC[C@H]2C)CC(OCCOCCOC2COC2)/C(C)=C/C=C/C=C/[C@@H](C)C[C@@H](C)C(=O)[C@@H]1OC` (stereo partly drawn) [I-73, (1R,9S,12S,15R,16E,18R,19R,21R,23S,24E,26E,28E,32S,35R)-12-[(1R)-2-[(1S,3R,4R)-4-dimethylphosphoryloxy-3-methoxy-cyclohexyl]-1-methyl-ethyl]-1-hydroxy-18,19-dimethoxy-15,17,21,23,29,35-hexamethyl-30-[2-[2-(oxetan-3-yloxy)ethoxy]ethoxy]-11,36-dioxa-4-azatricyclo[30.3.1.04,9]hexatriaconta-16,24,26,28-tetraene-2,3,10,14,20-pentone]: 10 to 100 nM.
